Measured values from publication PMC5703966, “Systemic clearance and brain distribution of carbazole-based cyanine compounds as Alzheimer’s disease drug candidates” (Scientific Reports, 2017).
Read-outs that look alike come from different tables or passages of the source.

Experiments:
[1] = Plasma binding by RED device; type: in vitro ADME, mouse; conditions: for plasma binding: mice; for f u,plasma %: mouse plasma, RED device, 4 h, 37 °C; on all read-outs here: tested at 0.4 µM
Protocol: (§1) Nonspecific binding in plasma (f u, plasma), microsomes (f u, mic) and hepatocyte (f u, hep) were determined using the method seen in supplemental information (Supplemental Methods). […]
(§2) All validation compounds were incubated at 37 °C over 4 h, and in triplicate. For […]
(§3) plasma stability, 10 mM DMSO solutions of SLM and SLOH were diluted to 40 µM (10% DMSO). Plasma […]
(§4) shaking water bath (60 oscillations/min approx.). The assay was started by addition of 6 µL aliquots to […]
(§5) the plasma (final DMSO incubation concentration 0.1%). […]
(§6) MS/MS. Natural logarithm of peak area ratios (compound peak area normalized by IS peak area) were plotted against time and half-life calculated. […]
(§7) placed into the sample chamber (indicated by the red ring) with 400 µL of PBS into the adjacent chamber.
(§8) The plate was sealed with a self-adhesive lid and incubated at 37 °C on an orbital shaker (1.5 g approx.) for 4 h. Aliquots (100 µL) were removed from each side of the insert, and analyzed after protein precipitation using 4 folds acetonitrile (ACN) containing berberine chloride as internal standard (IS) by LC-MS/MS (Analytical me thod seen below). The experimental procedure outlined in the Thermo Scientific RED device systems brochure was adopted in the present study . […]

[2] = Systemic clearance and pharmacokinetics after i.v. dose in C57BL/6 mice aging 2 months; type: in vivo, mouse; conditions: male, iv; for clearance / AUC(0-inf) / half-life / MRT inf / Vd: C57BL/6, mouse, plasma; for clearance: read-out: Cl p (converted); for MRT inf: read-out: MRT 0-∞; for Vd: read-out: Vd ss; for CL renal: mouse, urine and plasma, C57BL/6 mice, urine 0–24 h, read-out: Total Cl renal (converted)
Protocol: Male C57BL/6 and Bile duct-cannulated (BDC) mice (2 months, weighting: 25–30 g) obtained from Charles River, Inc. (Raleigh, NC) were used to study systemic clearance mechanism, in line with in vitro commercial samples from adolescent animals. Mice were fasted overnight and throughout the duration of the study ([…]), whereas access to water was provided ad libitum. SLOH and SLM were administered i.v. in PBS containing 5% DMSO via the tail vein (n = 5) at different dosages in a dosing volume of 5 mL/kg. Serial blood samples were collected before dosing and at 0.083, 0.167, 0.25, 0.5, 1, 2, 4, 8, 12 and 24 hours after dosing. Urine samples (0–12 and 12–24 hours; pooled 0–24 hours) were also collected after i.v. administration (1 mg/kg). Bile samples were collected at intervals of 0–4, 4–8 and 8–24 hours (pooled 0–24 hours) after dosing (1 mg/kg) to BDC mice.
Parameters in animals were determined using non-compartmental analysis. […] Systemic Cl p was calculated as the i.v. dose divided by AUC0−∞ ^iv. The terminal rate constant (K el) was calculated by a linear regression of the log-linear concentration-time curve, and the terminal elimination t 1/2 was calculated as 0.693 divided by K el. Mean residence time from t = 0 to infinity (MRT 0−∞) was calculated as AUMC 0−∞ divided by AUC 0−∞. Apparent steady-state distribution volume (Vd ss) was determined as Cl p multiplied by MRT 0−∞. […] The Cl bile was derived as the amount of (in milligrams) of SLM or SLOH in the bile over the 24-hour interval postdose/AUC0-24h. The influx clearance into brain (K in) was calculated by using the amount of drug in the brain (homogenate) at time t (A, brain (t)) (corrected for the amount of drug remaining in the cerebral vasculature) divided by plasma exposure up to this time point (AUC, plasma (0 − t)). The C u,brain was calculated by A brain (homogenate, ng/g brain) divided by V u,brain (mL/g brain). The unbound ISF to plasma ratio (K puu,brain) was calculated by unbound AUC 0−t of ISF (ng/mL × min) divided by unbound AUC 0–t (ng/mL × min) of plasma.

[3] = Plasma binding by RED device; type: in vitro ADME, human; conditions: for plasma binding: human; for f u,plasma %: human plasma, RED device, 4 h, 37 °C; on all read-outs here: tested at 0.4 µM
Protocol: as §1, §2, §3, §4, §5, §6, §7, §8

[4] = Liver microsomes stability with UDPGA and alamethacin (glucuronidation); type: in vitro ADME; conditions: 0.5 mg/mL microsomes protein, read-out: t 1/2 in liver microsomes with UDPGA and alamethacin
From the text: Microsomes and hepatocytes stability procedures and their parameters (the apparent intrinsic clearance (Cl int,app), unbound apparent intrinsic clearance (Cl u, int,app), scaled intrinsic clearance (Cl int,scaled), unbound scaled intrinsic clearance (Cl u, int,scaled), and Cl hep) calculation methods were shown in supplemental information (Supplemental Methods). The metabolites identification methods including LC-MS conditions was also found in supplemental information (Supplemental Methods). Several marker compounds as quality control were assayed (Table S6).
as §6
In vitro stability in liver microsomes and hepatocytes
Half-life (t1/2) of SLM or SLOH in liver microsomes was determined in duplicate. In phase I reaction, the compound (1 μM) was incubated with liver microsomes (0.5 mg/mL) in 100 mM sodium phosphate buffer (pH 7.4) including 81 mM Na2HPO4 and 19 mM NaH2PO4 ) at 37 °C, the reaction mixture was prewarmed at 37 °C for 2 minutes before adding NADPH (1.0 mM). In phase II reaction, the compound (1 μM) was incubated with liver microsomes (0.5 mg/mL) in 100 mM Tris-HCl buffer (pH 7.4) containing 5 mM MgCl2, 10 μg/mL alamethicin, and 2% (w/v) BSA. After pre-incubated on ice for 15 min, the reactions were initiated with the addition of UDPGA (5.0 mM). Aliquots of the reaction mixture at 0, 5, 10, 15, 30 or 45 minutes were added to 4 folds acetonitrile (ACN) containing internal standard (IS), and the samples were centrifuged at 9,659 g for 5 mins before LC-MS/MS analysis of substrate […]
disappearance. […]
Hepatocytes were suspended at 0.5 × 10^6 viable cells/mL of HT Medium and prewarmed at 37 °C for 10 minutes. Incubations were initiated with the addition of SLM and SLOH (final concentration=1 μM) and were conducted at 37 °C, 75% relative humidity, and 5% CO2. The reaction was stopped at 0, 5, 15, 30, 60, 90, 120 minutes by the addition of 4 folds ACN containing berberine chloride as internal standard

[5] = 1 mg/kg, C57BL/6 mice 2 months, i.v. 1 mg/kg

plasma binding [1] | f u,plasma % [1] | clearance ([2]; 0.2 mg/kg, i.v. 0.2 mg/kg) | clearance ([2]; 0.6 mg/kg, i.v. 0.6 mg/kg) | clearance [2, 5] | clearance ([2]; 2 mg/kg, i.v. 2.0 mg/kg) | clearance ([2]; 4 mg/kg, i.v. 4.0 mg/kg) | AUC(0-inf) ([2]; i.v. 0.2 mg/kg) | half-life ([2]; i.v. 0.2 mg/kg) | MRT inf ([2]; i.v. 0.2 mg/kg) | Vd ([2]; i.v. 0.2 mg/kg) | AUC(0-inf) ([2]; i.v. 0.6 mg/kg) | half-life ([2]; i.v. 0.6 mg/kg) | MRT inf ([2]; i.v. 0.6 mg/kg) | Vd ([2]; i.v. 0.6 mg/kg) | half-life ([2]; i.v. 1.0 mg/kg) | MRT inf ([2]; i.v. 1.0 mg/kg) | Vd ([2]; i.v. 1.0 mg/kg) | half-life ([2]; i.v. 2.0 mg/kg) | MRT inf ([2]; i.v. 2.0 mg/kg) | SMILES | also measured
> 95% | 3.50 ± 0.700^$ % | 15.5 mL/min/kg | 12.8 mL/min/kg | ~10.2 mL/min/kg | 10.7 mL/min/kg | 11.8 mL/min/kg | 220 ± 61 ng·h/mL | 6.9 ± 3.7 h | 2.7 ± 1.5 h | 1 ± 0.33 L/kg | 860 ± 310 ng·h/mL | 5.5 ± 1.1 h | 2.3 ± 0.78 h | 1.2 ± 0.58 L/kg | 5.8 ± 0.16 h | 1.8 ± 0.1 h | 0.83 ± 0.43 L/kg | 4.6 ± 0.76 h | 1.8 ± 0.17 h | COCCOCCn1c2ccccc2c2cc(/C=C/c3cc[n+](CCO)c4ccccc34)ccc21 [SLOH, (E)-1-(2-hydroxyethyl)-4-(2-(9-(2-(2-metho-xyethoxy)-ethyl)-9H-carbazol-3-yl)vinyl) quinolin-1-ium chloride] | Vd ([2]; i.v. 2.0 mg/kg): 1 ± 0.36 L/kg; half-life ([2]; i.v. 4.0 mg/kg): 5.8 ± 1.7 h; MRT inf ([2]; i.v. 4.0 mg/kg): 1.7 ± 0.08 h; Vd ([2]; i.v. 4.0 mg/kg): 1 ± 0.35 L/kg; CL renal ([2]; i.v. 1 mg/kg): 0.167 mL/min/kg; plasma binding [3]: > 95%; f u,plasma % [3]: 0.170 ± 0.0400%; half-life at 1 μM ([4]; ICR/CD-1, mouse, pH 7.4, mice): > 8.33 h; half-life at 1 μM ([4]; pH 7.4, human): > 8.33 h
> 95% | 1.70 ± 0.380^$ % | 14.8 mL/min/kg | 15.5 mL/min/kg | ~11.8 mL/min/kg | 12.5 mL/min/kg | 13.8 mL/min/kg | 240 ± 74 ng·h/mL | 6.4 ± 4 h | 3.5 ± 0.95 h | 1.5 ± 0.63 L/kg | 580 ± 170 ng·h/mL | 6 ± 1.1 h | 3.7 ± 0.86 h | 2.1 ± 0.54 L/kg | 9.3 ± 3.3 h | 3.2 ± 1 h | 2.2 ± 0.61 L/kg | 7.1 ± 0.55 h | 2.5 ± 0.18 h | COCCOCCn1c2ccccc2c2cc(/C=C/c3cc[n+](C)c4ccccc34)ccc21.[I-] [SLM, (E)-4-(2-(9-(2-(2-methoxyethoxy)ethyl)-9H-carbazol-3-yl)-vinyl)-1-methyl-quinolin-1-iumiodide] | Vd ([2]; i.v. 2.0 mg/kg): 1.7 ± 0.55 L/kg; half-life ([2]; i.v. 4.0 mg/kg): 6.5 ± 2 h; MRT inf ([2]; i.v. 4.0 mg/kg): 3 ± 0.52 h; Vd ([2]; i.v. 4.0 mg/kg): 2.1 ± 0.2 L/kg; CL renal ([2]; i.v. 1 mg/kg): 0.667 mL/min/kg; plasma binding [3]: > 95%; f u,plasma % [3]: 0.100 ± 0.0100%; half-life at 1 μM ([4]; ICR/CD-1, mouse, pH 7.4, mice): > 8.33 h; half-life at 1 μM ([4]; pH 7.4, human): > 8.33 h
